As a reminder, the Papp A→B is how fast a substance crosses the layer from the apical side. Usually IC50 stands for the concentration at which inhibition is half-maximal. As usually defined, the Cmax is the highest concentration seen after dosing. One may read the logD as the decadic logarithm of the distribution of all forms, ionised or not, between an organic phase and buffer at a given pH. A higher logD goes with higher lipophilicity. As a reminder, the half-life is the time in which the quantity being followed falls by half. In general, AUC(0-t) refers to the area under the concentration-time curve up to a stated or last time point. Read a low AUC(0-t) as less exposure. For orientation: clearance means a measure of how efficiently the substance is removed, as volume per time. Higher therefore signals a high capacity for elimination. The bioavailability is dose-corrected exposure relative to a reference, in per cent. Lower therefore signals little systemic uptake. In general, Tmax refers to the time at which the peak concentration occurs. Broadly, the inhibition is the relative decrease from the control value, in per cent.

Structures are written as SMILES. In brackets after ≈: the same amount, converted by molar mass. Activity calls are given as the source filed them. The calls are words filed in the database; no cut-off is given here.

Data set [1] concerns K562. Briefly: Antitumor activity against human K562 cells overexpressing GFP-fussed full length mouse eIF4E xenografted in SCID mouse assessed as increase in tumor free animal at 100 mg/kg, po administered as qd via gavage for 14 days cotreated with 2.5 mg/kg dasatinib for 1 hr post dose. It is filed as functional, organism-based. On the technique in general: A xenograft is tissue or cells of one species grown in another, often human tumour cells in immunodeficient mice.

The nature of data set [2]: Protein binding in mouse plasma at […] after 5 hrs by LC-MS/MS analysis. It is filed as ADME, cell-free. As to conditions: read-out: PPB (converted).
Data set [3] is described as follows: Apparent permeability of the compound across apical side to basolateral side in human Caco2 cells by LC-MS/MS analysis. The data set is classed as ADME, cell-based. The note with it: Caco-2. Background: Caco-2 monolayers are a common model of the intestinal barrier.
Data set [4] concerns Mus musculus. In words: Toxicity in SCID mouse xenografted with human K562 cells overexpressing GFP-fussed full length mouse eIF4E assessed as weight loss at 25 to 100 mg/kg, po qd administered via gavage for 14 days cotreated with 2.5 mg/kg dasatinib for 1 hr post dose. It is filed as organism-based. As to conditions: in vivo.
The species entered for data set [5] is Homo sapiens. Briefly: Antiproliferative activity against human GK5 cells after 48 hrs by CellTiter-Glo luminescence assay. It is filed as functional, cell-based.
The subject of data set [6] is K562. In words: Antitumor activity against human K562 cells overexpressing GFP-fussed full length mouse eIF4E xenografted in SCID mouse assessed as tumor growth inhibition at 100 mg/kg, po qd administered via gavage for 14 days relative to control. The note with it: 336 h, read-out: TGI.
Another data set addresses Cytochrome P450 3A4 (Homo sapiens, UniProt P08684).
A further data set deals with P3HR-1. In words: Antiproliferative activity against human P3HR1 cells after 48 hrs by CellTiter-Glo luminescence assay. The data set is classed as functional, cell-based.
The nature of data set [7]: Cmax in CD-1 mouse at 5 mg/kg, po administered via gavage as single dose by LC-MS/MS analysis. The data set is classed as ADME, organism-based. Details: dose 5 mg/kg, route oral. As to conditions: in vivo.
Data set [8] is described as follows: Octanol-phosphate buffer partition coefficient, logD of compound at pH 7.4 by HPLC-UV analysis. The data set is classed as physicochemical.
The nature of data set [9]: Half life in CD-1 mouse at 1 mg/kg, iv administered as single dose by LC-MS/MS analysis. It is filed as ADME, organism-based. As to conditions: in vivo.
The species named for data set [10] is Homo sapiens. In words: Antiproliferative activity against human AHH1 cells after 48 hrs by CellTiter-Glo luminescence assay. It is filed as functional, cell-based.
Data set [11] is described as follows: AUClast in CD-1 mouse at 5 mg/kg, po administered via gavage as single dose by LC-MS/MS analysis. The note with it: in vivo. The data set is classed as ADME, organism-based. Details: dose 5 mg/kg, time 0 - last, route oral.
Data set [12] is described as follows: in vitro. As to conditions: human, liver microsomes. On the technique in general: Liver microsomes are vesicles of endoplasmic reticulum, rich in cytochrome P450 enzymes.
Description: Half life in human liver microsomes at 1 uM in presence of NADPH by LC-MS/MS analysis
Data set [13] can be described thus: AUClast in CD-1 mouse at 1 mg/kg, iv administered as single dose by LC-MS/MS analysis. It is filed as ADME, organism-based. On the set-up: dose 1 mg/kg, time 0 - last, route intravenous. The note with it: in vivo.
Data set [14] in a line: Half life in CD-1 mouse at 5 mg/kg, po administered via gavage as single dose by LC-MS/MS analysis. The note with it: in vivo. It is filed as ADME, organism-based.
Data set [15] is described as follows: Half life in dog liver microsomes at 1 uM in presence of NADPH by LC-MS/MS analysis. It is filed as ADME, Canis lupus familiaris, microsome.
Data set [16] has as its system Mus musculus. In words: Toxicity in NOD/SCID mouse assessed as change in weight loss up to 200 mg/kg, po administered gavage treated for 7 consecutive days measured for 7 days post last dose. It is filed as organism-based. As to conditions: in vivo, 168 h.
Data set [17] in a line: Initial concentration in CD-1 mouse at 1 mg/kg, iv administered as single dose by LC-MS/MS analysis. The note with it: in vivo. The data set is classed as ADME, organism-based.
A short description of data set [18]: in vitro. As to conditions: mouse, liver microsomes.
Description: Half life in mouse liver microsomes at 1 uM in presence of NADPH by LC-MS/MS analysis
Data set [19] can be described thus: in vitro. The note with it: rat, liver microsomes.
Description: Half life in rat liver microsomes at 1 uM in presence of NADPH by LC-MS/MS analysis
Data set [20] in a line: Clearance in CD-1 mouse at 1 mg/kg, iv administered as single dose by LC-MS/MS analysis. As to conditions: in vivo. The data set is classed as ADME, organism-based.
Data set [21] is described as follows: Permeability of the compound by PAMPA. The data set is classed as ADME. The note with it: read-out: permeability.
Data set [22] deals with K562. Briefly: Antitumor activity against human K562 cells overexpressing GFP-fussed full length mouse eIF4E xenografted in SCID mouse assessed as tumor growth inhibition administered as qd via gavage for 14 days cotreated with 2.5 mg/kg dasatinib for 1 hr post dose. The data set is classed as functional, organism-based.
Data set [23] is described as follows: Thermodynamic solubility of the compound at pH 4 to 7.4 pION buffer after 18 hrs by UV spectrophotometric analysis. It is filed as physicochemical. As to conditions: read-out: Therm_solubility.
Data set [24] deals with Mus musculus. In words: Toxicity in NOD/SCID mouse assessed as clinical adverse effect up to 200 mg/kg, po administered gavage treated for 7 consecutive days measured for 7 days post last dose. As to conditions: in vivo, 168 h. It is filed as organism-based.
Data set [25] can be described thus: Oral bioavailability in CD-1 mouse at 5 mg/kg administered via gavage as single dose by LC-MS/MS analysis. It is filed as ADME, organism-based. The note with it: in vivo.
Data set [26] is described as follows: Protein binding in human plasma at […] after 5 hrs by LC-MS/MS analysis. The data set is classed as ADME, cell-free. As to conditions: read-out: PPB (converted).
The next data set in a line: in vivo. The note with it: CD-1, mouse, po, 5 mg/kg.
Data set [27] relates to Mus musculus. In words: Down regulation of phosphorylated CRKL in CB17 SCID mouse xenografted with human K562 cells overexpressing GFP-fussed full length mouse eIF4E at 100 mg/kg, po administered as single dose up to 8 hrs cotreated with 2.5 mg/kg dasatinib by Western blot. It is filed as functional, organism-based.
Data set [28] has as its target Dual specificity mitogen-activated protein kinase kinase; MEK1/2 (Homo sapiens) (UniProt P36507+Q02750). In words: Inhibition of MEK (unknown origin) at 1 uM by KINOMEscan assay relative to control. It is filed as protein assay.
Another data set deals with Cytochrome P450 2D6 (Homo sapiens, UniProt P10635). Briefly: Inhibition of CYP2D6 in human liver microsomes using dextromethorphan as substrate preincubated for 5 mins followed by NADPH addition by LC-MS/MS analysis. It is filed as ADME.
Data set [29] deals with Mus musculus. In words: Down regulation of phosphorylated eIF4E in CB17 SCID mouse xenografted with human K562 cells overexpressing GFP-fussed full length mouse eIF4E at 100 mg/kg, po administered as single dose up to 8 hrs cotreated with 2.5 mg/kg dasatinib by Western blot. It is filed as functional, organism-based.
For another data set, the system named is DOHH-2. Briefly: Antiproliferative activity against human DOHH2 cells after 48 hrs by CellTiter-Glo luminescence assay. It is filed as functional, cell-based.
The nature of data set [30]: Oral bioavailability in mouse at 50 mg/kg. The note with it: in vivo. The data set is classed as ADME, organism-based.

Cytochrome P450 2D6, sequence (P10635 whole entry): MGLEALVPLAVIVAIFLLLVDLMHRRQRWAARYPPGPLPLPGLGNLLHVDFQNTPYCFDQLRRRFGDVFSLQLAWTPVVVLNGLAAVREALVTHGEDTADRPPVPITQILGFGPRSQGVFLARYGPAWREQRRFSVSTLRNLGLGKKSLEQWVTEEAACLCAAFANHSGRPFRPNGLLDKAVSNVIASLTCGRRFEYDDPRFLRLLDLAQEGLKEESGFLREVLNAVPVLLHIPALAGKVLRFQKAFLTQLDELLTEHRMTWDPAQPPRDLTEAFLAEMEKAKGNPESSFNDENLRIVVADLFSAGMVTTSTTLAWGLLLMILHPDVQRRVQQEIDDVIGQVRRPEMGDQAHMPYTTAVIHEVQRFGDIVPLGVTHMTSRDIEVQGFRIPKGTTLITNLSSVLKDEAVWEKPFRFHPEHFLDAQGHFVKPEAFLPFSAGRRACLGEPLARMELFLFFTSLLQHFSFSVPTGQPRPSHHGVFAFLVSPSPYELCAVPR
Cytochrome P450 3A4, sequence (P08684 whole entry): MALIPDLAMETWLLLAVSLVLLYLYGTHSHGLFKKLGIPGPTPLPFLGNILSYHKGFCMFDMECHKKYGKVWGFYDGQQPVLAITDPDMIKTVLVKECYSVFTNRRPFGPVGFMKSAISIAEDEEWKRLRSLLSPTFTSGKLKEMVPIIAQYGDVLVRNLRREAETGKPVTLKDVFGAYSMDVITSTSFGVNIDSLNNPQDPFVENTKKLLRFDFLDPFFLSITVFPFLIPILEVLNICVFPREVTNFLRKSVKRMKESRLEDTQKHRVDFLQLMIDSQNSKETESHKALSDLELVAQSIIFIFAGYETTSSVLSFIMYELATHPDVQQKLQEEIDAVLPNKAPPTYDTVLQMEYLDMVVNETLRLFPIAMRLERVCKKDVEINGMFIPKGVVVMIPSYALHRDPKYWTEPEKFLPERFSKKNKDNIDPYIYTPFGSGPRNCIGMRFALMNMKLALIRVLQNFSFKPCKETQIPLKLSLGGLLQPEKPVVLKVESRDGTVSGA
Dual specificity mitogen-activated protein kinase kinase; MEK1/2 (Homo sapiens), sequence (P36507 whole entry, looked up): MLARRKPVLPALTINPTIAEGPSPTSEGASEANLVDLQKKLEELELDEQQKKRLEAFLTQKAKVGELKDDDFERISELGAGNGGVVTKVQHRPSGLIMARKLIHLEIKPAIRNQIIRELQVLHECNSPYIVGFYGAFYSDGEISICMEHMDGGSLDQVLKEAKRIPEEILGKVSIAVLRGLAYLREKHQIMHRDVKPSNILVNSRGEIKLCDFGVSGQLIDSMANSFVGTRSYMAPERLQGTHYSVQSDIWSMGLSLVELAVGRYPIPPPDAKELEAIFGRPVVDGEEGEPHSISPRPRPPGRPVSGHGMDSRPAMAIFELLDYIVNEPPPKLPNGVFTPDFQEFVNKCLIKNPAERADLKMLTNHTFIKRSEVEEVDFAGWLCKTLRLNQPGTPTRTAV
Dual specificity mitogen-activated protein kinase kinase; MEK1/2 (Homo sapiens), sequence (Q02750 whole entry, looked up): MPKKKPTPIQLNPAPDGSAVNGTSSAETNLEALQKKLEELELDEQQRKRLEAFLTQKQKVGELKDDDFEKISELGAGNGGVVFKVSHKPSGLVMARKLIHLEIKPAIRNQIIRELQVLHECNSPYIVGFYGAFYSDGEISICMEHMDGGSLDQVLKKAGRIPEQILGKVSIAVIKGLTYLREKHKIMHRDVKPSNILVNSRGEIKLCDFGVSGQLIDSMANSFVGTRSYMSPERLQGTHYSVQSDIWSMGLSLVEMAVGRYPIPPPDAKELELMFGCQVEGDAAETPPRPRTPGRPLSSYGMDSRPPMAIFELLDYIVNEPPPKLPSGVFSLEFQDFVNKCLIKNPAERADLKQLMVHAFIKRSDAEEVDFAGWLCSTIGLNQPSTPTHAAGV
Description for Cytochrome P450 3A4: Inhibition of CYP3A4 in human liver microsomes using midazolam as substrate preincubated for 5 mins followed by NADPH addition measured after 5 mins by LC-MS/MS analysis
Description for in vivo: Tmax in CD-1 mouse at 5 mg/kg, po administered via gavage as single dose by LC-MS/MS analysis

As to `N#Cc1ccc(-c2cnc3ccc(-c4ccc(C(=O)N5CCOCC5)cc4)cn23)cc1` [TINODASERTIB], the outcome in the data set with K562 [1], in the data set filed under Homo sapiens [5], in the data set with P3HR-1, in the data set filed under Homo sapiens [10], in the data set on Mus musculus [27] and in the data set on Mus musculus [29] was Active. The outcome with DOHH-2 was Active. For the same molecule, the fraction unbound at 5 h in data set [2] is 0.158; in [26], 0.003. Moreover, the Papp A→B in [3] was 30.5 ×10⁻⁶ cm/s. For the same molecule, the Activity result in the data set on Mus musculus [4], with Mus musculus [16] and in the data set on Mus musculus [24] was “Non-Toxic” throughout. Besides, the inhibition in vivo at 100 mg/kg in the data set with K562 [6] was 23%. Further, the IC50 against Cytochrome P450 3A4 and at Cytochrome P450 2D6 was greater than 20 µM each time. In addition, in data set [7], the Cmax worked out at 2480 ng/mL. In data set [8], this molecule gave a logD of 2.61. Besides, the half-life in data set [9] is 102 min; in data set [14] it was 106 min. The AUC(0-t) is 5480 ng·h/mL in [11] and 1760 ng·h/mL in [13]. The half-life at 1 µM was 48 min in “in vitro [12]”, greater than 60 min in data set [15], 56 min in “in vitro [18]” and greater than 60 min in “in vitro [19]”. Further, in data set [17], the C0 was 2380 ng/mL. In addition, the clearance in data set [20] is 9.33 mL/min/kg. The Papp in [21] came to 74.4 ×10⁻⁶ cm/s. In the data set with K562 [22], the TGI result is “Dose-dependent effect”. In [23], the solubility thermodynamic at 18 h was 55.4 µg/mL (≈ 136 µM). This molecule also showed a bioavailability in data set [25] of 64%. For the same molecule, the Tmax in “in vivo” came out at 30 min. In data set [28], this molecule displayed an inhibition greater than 65%.

With `CN1CCN(C(=O)c2ccc(-c3cn4c(-c5ccc(C#N)cc5)cnc4cn3)cc2)CC1`, the fraction unbound at 5 h is 0.129 in [2] and 0.016 in data set [26]. Moreover, the Papp A→B in [3] came out at 6.87 ×10⁻⁶ cm/s. Also, the IC50 on Cytochrome P450 3A4 and at Cytochrome P450 2D6 was greater than 20 µM in each case. The same molecule came in with a logD in [8] of 1.67. Further, the values for the half-life at 1 µM in “in vitro [12]” and in the data set “in vitro [18]” were 41 min and 37 min, respectively. Besides, the bioavailability in data set [30] came to 48%. Further, the Papp in data set [21] worked out at 102 ×10⁻⁶ cm/s. The solubility thermodynamic at 18 h in data set [23] is greater than 125 µg/mL.
